According to article PMC7318034, “Safety, Pharmacokinetics, and Drug-Drug Interaction Potential of Intravenous Durlobactam, a β-Lactamase Inhibitor, in Healthy Subjects” (Antimicrobial Agents and Chemotherapy, 2020):
Values belong to the compound of their own block, whether it stands above or below them.

Columns and labels:
[1] = Part C single-dose drug-drug interaction plasma PK in healthy subjects; conditions: for half-life / AUC(0-t) / clearance / Cmax / Vd: human, in vivo; for clearance: CL; for Vd: Vss
Procedure: (§1) The blank control matrix was made up of human plasma (BioreclamationIVT) diluted 1:1 with SigmaFast (reconstituted protease inhibitor cocktail tablet [product S8820; Sigma-Aldrich, St. Louis, MO] in 10 ml of water) for preparation of calibration standards and QC samples. […] A 100-μl aliquot of the supernatant was transferred to 96-well plates. Samples were diluted further with 400 μl of water, and 5 μl of sample was injected into the LC-MS/MS system for analysis. […] The LLOQ for all analytes was 5 ng/ml.
(§2) AUC was calculated using the log-linear trapezoidal rule.
(§3) Pharmacokinetic parameters were summarized at each assessment time point using the mean ± standard deviation (SD), the percent coefficient of variation (CV), median, minimum, and maximum. Single-ascending-dose study data were assessed for dose proportionality using Cmax and AUC, and accumulation ratios was determined using repeat-dose cohorts. […] Noncompartmental analysis of PK parameters was performed using Phoenix WinNonlin (v6.4) software to determine PK parameters.

[2] = Part D multiple-dose coadministration of DUR, SUL and IMI-CIL, plasma PK in healthy subjects; conditions: for AUC / Cmax / Tmax: human, in vivo; for AUC: AUC0–tau
Procedure: as §1, §2, §3

[3] = clinical; conditions: human, 0.5 g
[4] = Urine PK (urinary excretion, renal clearance) in healthy subjects; conditions: for CL renal: human, CLr
[5] = cited from earlier work
[6] = AUC0–24, part C cohort 14, DUR 1 g + IMI-CIL 0.5 g + SUL 1 g, day 8
[7] = part C cohort 14, IMI-CIL 0.5 g alone, day 3
[8] = part C cohort 14, DUR 1 g + IMI-CIL 0.5 g + SUL 1 g, day 8
[9] = part C cohort 14, DUR 1 g + IMI-CIL 0.5 g, day 5
[10] = DUR 1 g + SUL 1 g + IMI-CIL 0.5 g q6h, day 11
[11] = DUR 1 g + SUL 1 g + IMI-CIL 0.5 g q6h, day 1
[12] = DUR 1 g + SUL 1 g + IMI-CIL 0.5 g q6h, day 1, median, n=10
[13] = DUR 1 g + SUL 1 g + IMI-CIL 0.5 g q6h, day 11, median
[14] = part C cohort 14, Day 8, placebo subjects (no DUR), n=2
[15] = part D cohort 15, Day 1, DUR + SUL + IMI-CIL q6h, mean, n=10
[16] = part D cohort 15, Day 11, DUR + SUL + IMI-CIL q6h, mean, n=10
[17] = 1 g, part C cohort 13, SUL 1 g alone, day 1
[18] = part C cohort 13, DUR 1 g + SUL 1 g coadministered, day 5
[19] = part C cohort 14, SUL 1 g + IMI-CIL 0.5 g, day 8

half-life [1]: 1.2 ± 0.2 h
AUC(0-t) [1, 6]: 46900 ± 6600 ng·h/mL
AUC(0-t) ([1]; AUC0–24, part C cohort 14, DUR 1 g + IMI-CIL 0.5 g, day 5): 47100 ± 7200 ng·h/mL
AUC(0-t) ([1]; AUC0–24, part C cohort 14, IMI-CIL 0.5 g alone, day 3): 49600 ± 9800 ng·h/mL
clearance [1, 7]: 173 mL/min
Cmax [1, 8]: 40700 ± 4900 ng/mL
Cmax [1, 9]: 44000 ± 6100 ng/mL
Cmax [1, 7]: 46000 ± 8300 ng/mL
Vd [1, 8]: 10.4 ± 0.9 L
Vd [1, 9]: 9.9 ± 1.2 L
Vd [1, 7]: 9.6 ± 1.4 L
CL [1, 8]: 10.9 ± 1.6 L/h
t1/2 [1, 8]: 1.2 ± 0.2 h
CL [1, 9]: 10.8 ± 1.8 L/h
t1/2 [1, 9]: 1.2 ± 0.2 h
Accum. index [2, 10]: 1.1 ± 0.04
accumulation index ([2]; day 11 vs day 1): approximately 1
AUC [2, 11]: 45600 ± 7000 ng·h/mL
AUC [2, 10]: 39400 ± 7200 ng·h/mL
Cmax [2, 11]: 38600 ± 6000 ng/mL
Cmax [2, 10]: 38000 ± 5600 ng/mL
Tmax [2, 12]: 0.5 h
Tmax [2, 13]: 0.5 h
CL renal ([3]; in vivo): 133 mL/min
CL renal ([4]; in vivo, part C cohort 14, Day 8, placebo subjects (no DUR), n=2): 206 mL/min
CL renal ([4]; in vivo, part D cohort 15, Day 11, DUR + SUL + IMI-CIL q6h, mean): 183 mL/min
Fe [4, 14]: 120.359 (9.364) %
Fe [4, 15]: 88.376%
Fe [4, 16]: 84.834%
Compound: CC1(C)C[C@@H]1C(=O)N/C(=C\CCCCSC[C@H](N)C(=O)O)C(=O)O [CIL, cilastatin]
Ae [4, 14]: 601.795 (46.820) mg
Ae [4, 15]: 3535.03 mg
Ae [4, 16]: 424.168 mg

AUC(0-t) ([1]; AUC0–24): 43700 ± 9200 ng·h/mL
clearance [1]: 197 mL/min
Cmax [1]: 34400 ± 5300 ng/mL
half-life ([1]; t1/2): 1.2 ± 0.1 h
CL renal ([3]; urine, intravenous): 102 mL/min
CL renal ([4]; urine, intravenous, part C cohort 14, Day 8, placebo subjects (no DUR), n=2): 70.4 mL/min
CL renal ([4]; urine, intravenous, part D cohort 15, Day 11, DUR + SUL + IMI-CIL q6h, mean): 136 mL/min
Fe [4, 14]: 36.766 (11.368) %
Fe [4, 15]: 35.1762%
Fe [4, 16]: 54.343%
Compound: C[C@@H](O)[C@H]1C(=O)N2C(C(=O)O)=C(SCCN=CN)C[C@H]12 [IMI, imipenem, reference compound]
Ae [4, 14]: 183.832 (56.842) mg
Ae [4, 15]: 1407.051 mg
Ae [4, 16]: 271.71 mg

half-life ([1]; 1 g): 1.3 ± 0.1 h
AUC(0-t) ([1]; 1 g, AUC0–24, part C cohort 13, SUL 1 g alone, day 1): 68500 ± 4700 ng·h/mL
clearance [1, 17]: 243 mL/min
Cmax [1, 17]: 20700 ± 700 ng/mL
Vd [1, 17]: 18 ± 1.6 L
AUC(0-t) ([1]; AUC0–24, part C cohort 13, DUR 1 g + SUL 1 g coadministered, day 5): 73000 ± 6200 ng·h/mL
AUC(0-t) [1, 6]: 80600 ± 21200 ng·h/mL
AUC(0-t) ([1]; AUC0–24, part C cohort 14, SUL 1 g + IMI-CIL 0.5 g, day 8): 81700 ± 5200 ng·h/mL
clearance [1, 18]: 230 mL/min
clearance [1, 8]: 217 mL/min
clearance [1, 19]: 205 mL/min
Cmax [1, 18]: 22000 ± 2700 ng/mL
Cmax [1, 19]: 24000 ± 2000 ng/mL
Vd [1, 18]: 18.1 ± 1.7 L
Vd [1, 8]: 15.2 ± 2.7 L
Vd [1, 19]: 15.4 ± 1.5 L
t1/2 [1, 18]: 1.3 ± 0.1 h
t1/2 [1, 19]: 1.3 ± 0.1 h
AUC [2, 11]: 76700 ± 5800 ng·h/mL
AUC [2, 10]: 67900 ± 7600 ng·h/mL
Cmax [2, 11]: 23900 ± 1300 ng/mL
Cmax [2, 10]: 22400 ± 6100 ng/mL
Tmax [2, 12]: 2.7 h
Tmax [2, 13]: 2.6 h
Compound: CC1(C)[C@H](C(=O)O)N2C(=O)C[C@H]2S1(=O)=O [SUL, Sulbactam]

Compound: colistin
nephrotoxicity, patients affected ([5]; patients treated with colistin): ≥ 40%
mortality rate ([5]; patients with hospital-acquired or ventilator-associated pneumonia treated with colistin-based antibiotic regimens): approximately 40%
